“Also recorded” adds a separate entry of the source.
How the values were obtained:
[1] = system: HDAC I/II; experiment: HDAC-Glo I/II assay in HCT116 cells; assay type: cell-based, human; settings: for HDAC I/II inhibitory activity (in words): HCT116 and HEK293 cells, validation with epigenetics libraries; for HDAC activity inhibited, HDAC-Glo I/II: HCT116, qHTS primary screening of NPC library; for HDAC-Glo: Efficacy, HCT116 / Efficacy, HDAC-Glo I/II HCT116 assay: maximal response; for IC50, HDAC-Glo activity: HCT116, validation with epigenetics libraries, 0.7 nM-46 μM
[2] = system: HDAC I/II; experiment: HDAC-Glo I/II assay in human neural stem cells; assay type: cell-based; settings: cherry-pick confirmation; for HDAC-Glo: Efficacy, hNSC: maximal response; for IC50: read-out: HDAC-Glo: IC50, hNSC, 11 concentrations, 1 hour; for inhibition of HDAC-Glo I/II luminescence signals: hNSCs, Figure 2
[3] = system: human neural stem cells; experiment: CellTiter-Glo cell viability assay in hNSC; assay type: cell-based; settings: cherry-pick confirmation, 1 hour
[4] = system: HCT116 cells; experiment: CellTiter-Glo cell viability assay in HCT116; assay type: cell-based, human; settings: cherry-pick confirmation, 1 hour
[5] = system: class I and II HDAC enzymes; experiment: Panel of fluorogenic assays against ten class I and II HDAC isoforms; assay type: biochemical, human; settings: 20 μM; for inhibition of HDAC isoforms (in words): Figure 3
[6] = system: HDAC I/II; experiment: HDAC-Glo I/II assay in HEK293 cells; assay type: cell-based, human; settings: HEK293, validation with epigenetics libraries, 0.7 nM-46 μM
[7] = molecular target: T1, HDAC6 (Homo sapiens, UniProt Q9UBN7); experiment: Fluorogenic isoform-specific HDAC assay, HDAC6; assay type: biochemical; settings: 20 μM
T1 sequence (Q9UBN7 1-1215): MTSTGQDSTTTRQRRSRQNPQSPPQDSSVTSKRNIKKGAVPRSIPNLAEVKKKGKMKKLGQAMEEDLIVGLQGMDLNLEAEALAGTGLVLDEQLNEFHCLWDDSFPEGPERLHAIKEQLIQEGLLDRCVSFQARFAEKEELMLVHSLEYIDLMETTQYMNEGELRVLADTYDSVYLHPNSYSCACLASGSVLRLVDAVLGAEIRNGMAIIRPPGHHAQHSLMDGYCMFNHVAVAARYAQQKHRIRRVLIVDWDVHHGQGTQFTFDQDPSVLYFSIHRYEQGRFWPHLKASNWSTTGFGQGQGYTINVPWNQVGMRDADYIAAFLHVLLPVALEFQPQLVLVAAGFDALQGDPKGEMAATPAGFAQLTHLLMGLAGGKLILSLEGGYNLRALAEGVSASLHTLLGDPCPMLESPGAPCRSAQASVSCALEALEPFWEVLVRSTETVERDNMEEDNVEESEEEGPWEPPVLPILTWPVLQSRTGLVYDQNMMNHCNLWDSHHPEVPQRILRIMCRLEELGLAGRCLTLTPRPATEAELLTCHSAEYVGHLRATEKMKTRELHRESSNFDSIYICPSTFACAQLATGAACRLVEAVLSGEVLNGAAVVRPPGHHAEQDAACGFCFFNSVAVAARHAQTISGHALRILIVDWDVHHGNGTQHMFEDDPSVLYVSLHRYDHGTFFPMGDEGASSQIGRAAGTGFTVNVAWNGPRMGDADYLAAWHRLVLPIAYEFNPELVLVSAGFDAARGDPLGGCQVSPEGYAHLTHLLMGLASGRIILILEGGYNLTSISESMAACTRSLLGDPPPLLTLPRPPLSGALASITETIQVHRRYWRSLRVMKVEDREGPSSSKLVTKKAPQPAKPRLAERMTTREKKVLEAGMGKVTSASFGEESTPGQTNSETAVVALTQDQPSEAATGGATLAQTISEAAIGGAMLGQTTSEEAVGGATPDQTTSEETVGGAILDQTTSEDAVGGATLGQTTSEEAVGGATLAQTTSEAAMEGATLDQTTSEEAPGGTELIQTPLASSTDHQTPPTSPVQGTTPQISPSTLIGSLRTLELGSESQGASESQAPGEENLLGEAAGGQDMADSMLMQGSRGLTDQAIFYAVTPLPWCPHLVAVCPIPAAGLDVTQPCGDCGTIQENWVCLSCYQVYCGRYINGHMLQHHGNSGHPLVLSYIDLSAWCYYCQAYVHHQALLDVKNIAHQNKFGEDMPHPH

[8] = molecular target: HDAC3 (Homo sapiens, UniProt O15379); experiment: Fluorogenic isoform-specific HDAC assay, HDAC3; assay type: biochemical; settings: 20 μM
HDAC3, sequence (O15379 whole entry, canonical isoform): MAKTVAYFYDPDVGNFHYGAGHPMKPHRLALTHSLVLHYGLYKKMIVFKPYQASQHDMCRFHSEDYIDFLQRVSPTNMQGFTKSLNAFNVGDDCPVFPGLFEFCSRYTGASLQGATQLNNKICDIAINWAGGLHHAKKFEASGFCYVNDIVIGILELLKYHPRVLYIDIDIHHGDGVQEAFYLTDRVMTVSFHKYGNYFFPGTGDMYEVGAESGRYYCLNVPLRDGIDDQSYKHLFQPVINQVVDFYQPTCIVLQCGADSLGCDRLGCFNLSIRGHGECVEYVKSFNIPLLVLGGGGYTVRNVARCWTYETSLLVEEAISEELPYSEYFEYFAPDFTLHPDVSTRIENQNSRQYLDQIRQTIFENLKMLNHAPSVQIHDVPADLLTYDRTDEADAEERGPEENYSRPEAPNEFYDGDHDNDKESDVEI
HDAC3, sequence (Q9Y618 395-489 partner limits assumed): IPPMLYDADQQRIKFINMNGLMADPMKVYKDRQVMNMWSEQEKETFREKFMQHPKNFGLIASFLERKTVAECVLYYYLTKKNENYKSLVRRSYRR

[9] = read-out: HDAC-Glo: IC50, HCT116, cherry-pick confirmation, 11 concentrations, 1 hour
[10] = read-out: IC50, HDAC-Glo I/II HCT116 assay, powder confirmation

Molecule | HDAC-Glo: Efficacy, HCT116 ([1]; cherry-pick confirmation) | Efficacy, HDAC-Glo I/II HCT116 assay ([1]; powder confirmation) | IC50 [1, 9] [nM] | IC50 [1, 10] [nM] | HDAC-Glo: Efficacy, hNSC [2] | IC50 [2] [nM] | Viability: IC50, hNSC [3] | Viability: IC50, HCT116 [4] | also measured
Nc1cc(F)ccc1NC(=O)/C=C/c1cnn(C/C=C/c2ccccc2)c1 [RGFP966] | – | – | – | – | – | – | – | – | HDAC I/II inhibitory activity (in words) [1]: identified
CCCSc1ccc2nc(NC(=O)OC)[nH]c2c1 [albendazole] | – | – | – | – | – | – | – | – | HDAC activity inhibited, HDAC-Glo I/II [1]: more than half
O=C(CCCCCN1C(=O)c2cccc3cccc(c23)C1=O)NO [Scriptaid] | 123 ± 3% | 93 ± 1% | 1870 ± 220 | 1760 ± 240 | 113 ± 6% | 1190 ± 250 | Inactive | Inactive | inhibition against all class I and II HDAC enzymes [5]: over 80%; inhibition of HDAC isoforms (in words) [5]: inhibited activities of all isoforms
O=C(Nc1ccc([N+](=O)[O-])cc1Cl)c1cc(Cl)ccc1O [Niclosamide] | 112 ± 2% | 98 ± 1% | 2380 ± 160 | 2080 ± 170 | 102 ± 4% | 1400 ± 240 | Inactive | Inactive | –
O=C(CCCCCCC(=O)Nc1ccccc1)NO [Vorinostat, suberoylanilide hydroxamic acid] | 0.77 ± 0.05 (119 ± 6) % | 0.45 ± 0.04 (99 ± 0) % | – | – | 101 ± 2% | 660 ± 80 | Inactive | Inactive | –
CN(C)C(=O)COC(=O)Cc1ccc(OC(=O)c2ccc(NC(=N)N)cc2)cc1 [Camostat] | 109 ± 4% | – | 1940 ± 660 | – | 102 ± 3% | 950 ± 200 | Inactive | Inactive | inhibition of HDAC-Glo I/II luminescence signals [2]: completely inhibited
CCC[S+]([O-])c1ccc2[nH]c(NC(=O)OC)nc2c1 (stereo not shown) [albendazole oxide] | – | – | – | – | – | – | – | – | HDAC activity inhibited, HDAC-Glo I/II [1]: more than half
CCC(=O)CCCCC[C@@H]1NC(=O)[C@H]2CCCCN2C(=O)[C@H]([C@@H](C)CC)NC(=O)[C@H](Cc2cn(OC)c3ccccc23)NC1=O [apicidin] | – | – | – | – | – | – | – | – | HDAC I/II inhibitory activity (in words) [1]: identified
O=C(O)CCCc1ccccc1 [sodium phenylbutyrate] | – | – | – | – | – | – | – | – | IC50, HDAC-Glo activity [1]: did not show concentration-dependent inhibition; IC50, HDAC-Glo activity [6]: did not show concentration-dependent inhibition
CCCC(=O)[O-].[Na+] [sodium butyrate] | – | – | – | – | – | – | – | – | IC50, HDAC-Glo activity [1]: did not show concentration-dependent inhibition; IC50, HDAC-Glo activity [6]: did not show concentration-dependent inhibition
CC(C)[C@H](C(=O)Nc1ccc(C(=O)NO)cc1)c1ccccc1 [AR-42] | 113 ± 2% | – | 940 ± 110 | – | 115 ± 5% | 760 ± 170 | Inactive | Inactive | –
Nc1ccccc1NC(=O)c1ccc(CNC(=O)OCc2cccnc2)cc1 [entinostat] | – | – | – | – | – | – | – | – | HDAC I/II inhibitory activity (in words) [1]: identified
Nc1cc(F)ccc1NC(=O)c1ccc(CNC(=O)/C=C/c2cccnc2)cc1 [chidamide] | – | – | – | – | – | – | – | – | HDAC I/II inhibitory activity (in words) [1]: identified
CCCCc1nc2cc(/C=C/C(=O)NO)ccc2n1CCN(CC)CC [Pracinostat] | 114 ± 4% | – | 350 ± 60 | – | 112 ± 5% | 270 ± 60 | Inactive | Inactive | –
CNC(=O)c1ccccc1Sc1ccc2c(/C=C/c3ccccn3)n[nH]c2c1 [Axitinib] | 2.97 ± 0.34 (105 ± 3) % | – | – | – | 6.65 ± 0.76 (106 ± 4) % | – | – | – | inhibition of HDAC6 (in words) [7]: inhibited HDADC6 the most
O=C(Oc1ccccc1)c1cccc(C(=O)Oc2ccccc2)c1 [Diphenyl isophthalate] | 112 ± 5% | 97 ± 0% | 3870 ± 810 | 5280 ± 630 | 103 ± 3% | 2240 ± 150 | Inactive | Inactive | inhibition of HDAC3 (in words) [8]: selectively inhibited
Oc1ccc(/C=C/c2cc(O)cc(O)c2)cc1 [Resveratrol] | 97 ± 13% | 69 ± 2% | 11000 ± 1980 | 18200 ± 2050 | 102 ± 4% | 7430 | Inactive | Inactive | HDAC I/II inhibitory activity (in words) [1]: identified; inhibition of HDAC-Glo I/II luminescence signals [2]: completely inhibited
CC(C)c1ccc2oc3nc(N)c(C(=O)O)cc3c(=O)c2c1 [Amlexanox] | 110 ± 2% | 98 ± 0% | 1090 ± 70 | 1650 ± 360 | 96 ± 7% | 1100 ± 140 | Inactive | Inactive | –
Cc1nc(-c2ccc(OCC(C)C)c(C#N)c2)sc1C(=O)O [Febuxostat] | 127 ± 5% | 96 ± 1% | 2380 ± 440 | 2430 ± 270 | 116 ± 3% | 2160 ± 600 | Inactive | Inactive | inhibition of HDAC3 (in words) [8]: selectively inhibited; also recorded: selective to HDAC3
c1ccc2[nH]c(-c3cscn3)nc2c1 [thiabendazole] | – | – | – | – | – | – | – | – | HDAC activity inhibited, HDAC-Glo I/II [1]: more than half
CC(C)(C)OC(=O)Nc1ccc(-c2cc(C(=O)NCCCCCCC(=O)NO)no2)cc1 [ISOX] | 124 ± 5% | – | 2320 ± 650 | – | 118 ± 6% | 1960 ± 350 | Inactive | Inactive | –
O=C(/C=C/c1ccc(O)cc1)c1ccc(O)cc1O [Isoliquiritigenin] | 110 ± 3% | 97 ± 0% | 1670 ± 190 | 2360 ± 110 | 117 ± 5% | 2020 ± 130 | Inactive | Inactive | inhibition of HDAC isoforms (in words) [5]: weakly inhibited many class I and II HDAC enzymes
Cc1oncc1C(=O)Nc1ccc(C(F)(F)F)cc1 [Leflunomide] | 118 ± 11% | 92 ± 0% | 9480 ± 1980 | 5610 ± 120 | 106 ± 2% | 5900 | Inactive | Inactive | inhibition of HDAC3 (in words) [8]: selectively inhibited
selisistat [selisistat (EX-527)] | – | – | – | – | – | – | – | – | average IC50, HDAC-Glo I/II, assay selectivity ([1]; HCT116, Figure 1C): inactive
C[C@@H]1NC(=O)[C@H]2CCCN2C(=O)[C@H](CCCCCC(=O)[C@@H]2CO2)NC(=O)[C@@H](C)NC1=O [HC Toxin] | – | – | – | – | – | – | – | – | HDAC I/II inhibitory activity (in words) [1]: identified
CCCC(CCC)C(=O)O [valproic acid] | – | – | – | – | – | – | – | – | IC50, HDAC-Glo activity [1]: did not show concentration-dependent inhibition; IC50, HDAC-Glo activity [6]: did not show concentration-dependent inhibition
